Reference: paper PMC9506587 (Toxins, 2022)

Key:
[1] = test system: recombinant protein USTB-05-C (MlrC); conditions: pH 7.3
[2] = test system: recombinant protein USTB-05-C (MlrC); assay: in vitro; conditions: Sphingopyxis sp. USTB-05, isolated enzyme, pH 7.3

Question: How did the “time to complete removal (degradation) of linear NOD by purified MlrC” value [1] turn out when `C/C=C(/C(=O)N[C@@H](C(=O)O)[C@H](C)C(=O)N[C@@H](CCCNC(=N)N)C(=O)O)N(C)C(=O)CC[C@@H](NC(=O)[C@@H](C)[C@@H](N)/C=C/C(C)=C/[C@H](C)[C@H](Cc1ccccc1)OC)C(=O)O` [linear NOD] was run?
Answer: ≤ 6 h

Question: And the metabolised at 4 h [2]?
Answer: ~98.7%
